In patent US7544497B2, “Compositions for manipulating the lifespan and stress response of cells and organisms” (President and Fellows of Harvard College, priority 2003, dated 2009):
Several values for one entry are separate records, joined by “and”; a condition that tells them apart may be missing. Equal values may be shown once.

Tests used:
[1] = tested on: D. melanogaster; assay: D. melanogaster adult survival assay; type: in vivo
Protocol: Survival assays were conducted independently with adult D. melanogaster in two laboratories. In the first laboratory, all trials used an yw marked wild-type strain. […] Newly eclosed adults were placed in 1L demography cages with approximately 75 males and 75 females. Three to four replicate 1L demography cages were used for each treatment group in each trial. Every two days, dead flies were removed and scored, and food vials were replenished. Food vials contained cornmeal-sugar-yeast diet with SAF yeast as either 2% or 3% by weight. […] Fresh stock solutions and adult media were prepared weekly. In the second laboratory, lifespan trials were conducted with the wild type strain Canton-S, dSir2^4.5 and […], University of Oregon), […], Stockholm University, Sweden), and dSir2^KG00871 (Drosophila Stock Center, Bloomington, Ind.). Larvae for all tests were reared on standard cornmeal-sugar-yeast diet. […] In all trials, 20 males with 20 females were placed into each of 10 vials/treatment group. Every two days, flies were passed into new vials and dead flies were counted. […] Fresh stock solution and adult media was prepared weekly.

[2] = tested on: S. cerevisiae; assay: Yeast replicative lifespan by micro-manipulation; details: 10 μM; for Average lifespan: complete 2% glucose medium, wild type untreated 22.9
[3] = target: T1, recombinant human SIRT1 (Homo sapiens, UniProt Q96EB6); assay: SIRT1 fluorescent deacetylation assay (p53-382 acetylated peptide substrate); type: biochemical; details: for SIRT1 stimulating activity (in words): 25 μM NAD+, 25 μM p53-382 acetylated peptide
T1 sequence (Q96EB6 1-747): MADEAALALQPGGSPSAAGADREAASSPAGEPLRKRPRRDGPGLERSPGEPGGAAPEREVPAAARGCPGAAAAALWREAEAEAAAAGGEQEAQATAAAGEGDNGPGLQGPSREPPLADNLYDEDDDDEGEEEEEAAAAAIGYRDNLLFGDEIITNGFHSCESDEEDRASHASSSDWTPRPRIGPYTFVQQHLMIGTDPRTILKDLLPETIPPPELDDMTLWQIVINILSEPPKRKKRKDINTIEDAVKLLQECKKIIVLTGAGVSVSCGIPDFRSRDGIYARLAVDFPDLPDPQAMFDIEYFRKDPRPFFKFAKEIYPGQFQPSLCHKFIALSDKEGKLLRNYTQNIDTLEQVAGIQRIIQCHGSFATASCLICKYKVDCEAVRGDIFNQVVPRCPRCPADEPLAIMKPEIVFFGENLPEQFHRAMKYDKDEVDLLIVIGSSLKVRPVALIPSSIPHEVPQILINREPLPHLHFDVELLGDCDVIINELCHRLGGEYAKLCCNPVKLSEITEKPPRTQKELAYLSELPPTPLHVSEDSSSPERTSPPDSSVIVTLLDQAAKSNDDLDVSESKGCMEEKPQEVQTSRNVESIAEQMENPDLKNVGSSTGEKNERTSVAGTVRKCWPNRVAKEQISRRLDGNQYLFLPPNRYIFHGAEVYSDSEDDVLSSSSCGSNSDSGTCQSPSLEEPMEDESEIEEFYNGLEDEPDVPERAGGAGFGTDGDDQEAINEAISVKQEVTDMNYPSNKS
Text: To identify compounds that modulate SIRT1 activity, we screened a number of small molecule libraries using a fluorescent deacetylation assay in 96-well plates^26. The substrate used in the assay was a fluorogenic peptide based on the sequence encompassing the p53-K382 acetylation site, a known target of SIRT1 in vivo^20,21,27. This substrate was preferred over a variety of other fluorogenic peptide substrates that were based on other known HDAC targets (FIG. 5). The small molecule libraries included analogues of nicotinamide, ε-acetyl lysine, NAD^+, nucleotides, nucleotide analogues and purinergic ligands. From the initial screen, several sirtuin inhibitors were found (Supplementary Table 7). However, the most striking outcome was the identification of two compounds, quercetin and piceatannol, that stimulated SIRT1 activity five and eight-fold, respectively (Table 1). Both quercetin and piceatannol have been previously identified as protein kinase inhibitors^28,29.
His6-tagged recombinant SIRT1 and GST-tagged recombinant Sir2 were prepared as previously described^26. From 0.1 to 1 μg of SIRT1 and 1.5 μg of Sir2 were used per deacetylation assay (in 50 μl total reaction) as previously described^26. SIRT1 assays and certain of those for Sir2 employed the p53-382 acetylated substrate (‘Fluor de Lys-SIRT1’, BIOMOL) rather than FdL.
Themed compound libraries (BIOMOL) were used for primary and secondary screening. […] For water soluble compounds and negative controls, 1% v/v DMSO was added to the assay. […] HeLa cells were grown and the cellular deacetylation assays were performed and read, as above, but in full-volume 96-well microplates (Corning Costar 3595). Unless otherwise indicated all initial rate measurements were means of three or more replicates, obtained with single incubation times, at which point 5% or less of the substrate initially present had been deacetylated. Calculation of net fluorescence increases included subtraction of a blank value, which in the case of Sir2 was obtained by omitting the enzyme from the reaction and in the case of SIRT1 by adding an inhibitor (200 μM suramin or 1 mM nicotinamide) to the reaction prior to the acetylated substrate. […] All error bars represent the standard error of the mean.
All SIRT1 rate measurements used in the calculation of “Ratio to Control Rate” were obtained with 25 μM NAD^+ and 25 μM p53-382 acetylated peptide substrate were performed as described above and in K. T. Howitz et al. Nature (2003) 425: 191. All ratio data were calculated from experiments in which the total deacetylation in the control reaction was 0.25-1.25 μM peptide or 1-5% of the initial concentration of acetylated peptide.

[4] = target: T2, SIRT1 deacetylase (Homo sapiens, UniProt Q96EB6); assay: High-throughput SIRT1 screening protocol (384 well); type: biochemical; details: 200 μM NAD+, 5 μM Fluor de Lys-SIRT1 substrate; roughly 50 μM
T2 construct: purchased BIOMOL
T2 sequence (Q96EB6 1-747): T1 sequence (Q96EB6 1-747)
Protocol: The reaction mixture contains (final): 0.5 units/reaction SIRT1 deacetylase (BIOMOL); 200 μM NAD^+; 5 μM Fluor de Lys-SIRT1 substrate (BIOMOL); buffer (25 mM Tris/Cl, pH 8.0, 137 mM NaCl, 2.7 mM KCl, 1 mM MgCl2, and 1 mg/ml BSA). In addition, a reaction mixture containing no enzyme was made so that each well receiving compound has a corresponding “no enzyme control” well. Reactions were performed in black 384 well plates (NUNC) in a final volume of 25 μl/well.
The reactions were started by combining enzyme and substrate in a reaction mixture immediately prior to aliquoting in plates (or substrate only for “no enzyme control” plates). Mixture were aliquoted to plates using Biotek μFill (Biotek Instruments). Control mixtures were manually added to designated wells. A library compound was added at a desired concentration by pin transfer to both “with enzyme” and “no enzyme” plates. Compounds were added in at least triplicate (with enzyme reaction in duplicate and no enzyme controls) at a final concentration of roughly 50 μM. The plates were incubated at 37° C. for 30-60 minutes. Then 25 μl of 1× Developer II (BIOMOL) plus 2 mM nicotinamide were added to all wells to stop the reactions. The reactions were left for at least 30 minutes at 37° C. for the signal to develop. The plates were read in a microplate-reading fluorometer capable of excitation at a wavelength in the range of 350-380 nm and detection of emitted light in the range of 440-460 nm. A read time of 0.1 sec per well was used.

[5] = Solution stability (t1/2) from SIRT1 fold-stimulation of aged stock; type: physicochemical; details: ethanol stock 2.5 mM, room temperature, nitrogen atmosphere
Text: The fold-stimulation (ratio to control) obtained with a compound diluted from an aged stock solution was compared to an identical dilution from a stock solution freshly prepared from the solid compound. “t1/2” is defined as the time required for the SIRT1 fold-stimulation of the compound from the aged solution to decay to one-half of that obtained from a freshly prepared solution. […] Stocks were aged by storage at room temperature, in glass vials, under a nitrogen atmosphere.

[6] = tested on: C. elegans; assay: C. elegans lifespan assay; type: in vivo; details: 100/500 μM, N2 worms, E. coli as food; untreated 100%
Protocol: Thus, the presence of resveratrol in the growth media of C. elegans extends their lifespan.
Bristol N2 (Caenorhabditis Genetics Center) was used as the wild-type strain. The sir-2.1 mutant strain was generated by backcrossing VC199 (sir-2.1 (ok434)) to N2 four times. Cultures were grown on standard NGM media and maintained on E. coli strain OP50. For the lifespan assays, synchronized animals were transferred to treatment plates as young adults (2 d after hatching, day 0 of assay), and were transferred to fresh treatment plates every 2 days for the first 6 to 8 days of the assay. […] For some lifespan trials, heat-killed OP50 were used as a food source. OP50 cultures were heated to 65° C. for 30 minutes, then pelleted and resuspended in 1/10 volume in S Basal supplemented with 10 mM MgSO4. In all assays, worms were monitored daily for mortality by gently probing with a platinum pick. Assays were performed at 24° C.

[7] = tested on: Human 293 cells; assay: Survival of 293 cells (Coulter counter); type: cell-based; details: 50 micromolar
Protocol: Human 293 were grown to exponential phase under standard conditions and subjected to a dose of compound (50 micromolar) for 96 hours. The number of live cells each time point was counted using a Coulter counter.

For O=c1c(O)c(-c2ccc(O)c(O)c2)oc2cc(O)ccc12 [fisetin], the “longevity on restricted diet” value ([1]; restricted diet) was “neither resveratrol nor fisetin further increased longevity”, the “lifespan extension (up to)” value ([1]; wild type, males and females, independent tests) was “up to 23%” and the Average lifespan [2] was 30.0 generations.
Compound O=C(/C=C/c1ccc(O)c(O)c1)c1ccc(O)cc1O [butein] has an Average lifespan [2] of 35.5 generations.
In the case of NC(=O)c1cccnc1 [Nicotinamide], the “SIRT1 Vmax decrease” value ([3]; 50 μM nicotinamide, absence of resveratrol, NAD+ or p53-382 acetylated peptide varied) is reported as 30% and 36%.
With Oc1cc(O)cc(/C=C/C2CCCCC2)c1 [BML-224] the “SIRT1 stimulating activity (in words)” value [3] was “nearly as detrimental”.
In the case of Oc1cc(O)cc(/C=C/c2ccccc2)c1 [Pinosylvin, 3,5-Dihydroxy-trans-stilbene], the “activation of SIRT1 (positive controls)” value [4] is reported as 3.28 fold and the “SIRT1 stimulating activity (in words)” value [3] is reported as “did not significantly diminish”.
In the case of O=c1c(O)c(-c2ccc(O)c(O)c2)oc2cc(O)cc(O)c12 [quercetin], the “stimulation of SIRT1 activity” value ([3]; initial screen) is reported as “five” and the Average lifespan [2] is reported as 23.4 generations.
With COc1ccc(/C=C/c2cc(O)cc(O)c2)cc1 [BML-233, 3,5-Dihydroxy-4′-methoxy-trans-stilbene] the “activation of SIRT1 (positive controls)” value [4] was 2.1 fold.
With Oc1cc(O)cc(/C=C/c2ccc(Cl)cc2)c1 [BML-217, 3,5-Dihydroxy-4′-chloro-trans-stilbene] the “SIRT1 stimulating activity (in words)” value [3] was “did not significantly diminish”.
With CC(=O)Oc1cc(O)cc(/C=C/c2ccc(O)cc2)c1 [BML-221, 3,4′-Dihydroxy-5-acetoxy-trans-stilbene] the “solution stability relative to resveratrol” value [5] was “vast improvement”, the “% change in C. elegans lifespan relative to untreated organisms” value [6] was >100% (ongoing) and the “% change in yeast replicative lifespan relative to untreated organisms” value ([2]; 2% (w/v) glucose YPD, untreated 100%) was 165%.
In the case of Cc1ccc(/C=C/c2cc(O)cc(O)c2)cc1 [BML-228], the “Survival of 293 cells” value ([7]; 0 h) is reported as 100%, the “Survival of 293 cells” value ([7]; 48 h) is reported as 46% and the “Survival of 293 cells” value ([7]; 96 h) is reported as 32%.
With Oc1cc(O)cc(/C=C/c2ccc(O)c(O)c2)c1 [piceatannol] the Average lifespan [2] was 24.0 generations.
For CCc1ccc(/C=C/c2cc(O)cc(O)c2)cc1 [BML-225], the “Survival of 293 cells” value ([7]; 0 h) was 100%, the “Survival of 293 cells” value ([7]; 48 h) was 5% and the “Survival of 293 cells” value ([7]; 96 h) was 8%.
In the case of CSc1ccc(/C=C/c2cc(O)cc(O)c2)cc1 [BML-230], the “SIRT1 dose response, stimulated activity compared with resveratrol” value ([3]; 25 μM NAD+ and p53-382 acetylated peptide, 20 minutes) is reported as “exceeds that stimulated by resveratrol at all concentrations tested”, the “ratio (R) of BML-230-stimulated to resveratrol-stimulated SIRT1 rate” value ([3]; 500 μM activator, 25 μM NAD+ and p53-382 acetylated peptide, 20 minutes) is reported as roughly 1.4 and the “Survival of 293 cells” value ([7]; 0 h) is reported as 100%. For the same compound, the “Survival of 293 cells” value ([7]; 48 h) was 55% and the “Survival of 293 cells” value ([7]; 96 h) was 57%.
With O=c1c(-c2ccc(O)cc2)coc2cc(O)cc(O)c12 [genistein] the “SIRT1 stimulating activity (in words)” value [3] was “absence of activity”.
For O=C(Nc1cc(O)cc(O)c1)c1ccccc1 [BML-219, N-(3,5-Dihydroxyphenyl)benzamide], the “SIRT1 stimulating activity (in words)” value [3] was “abolished activity”.
With [N-]=[N+]=Nc1ccc(/C=C/c2cc(O)cc(O)c2)cc1 [BML-232] the “SIRT1 stimulating activity (in words)” value [3] was “very similar SIRT1 activating properties to resveratrol”.
